# Results published in patent EP0144170B1, “Biosynthesis of unnatural cephalosporins” (QUEEN'S UNIVERSITY AT KINGSTON, priority 1983, dated 1985).
# “And” between values parts separate entries of the source, which are not always exact repeats. Identical values can stand only once.
# Test system: Escherichia coli. ess.
# Experiment: Agar diffusion bioassay of diluted original antibiotic solutions (Example 9)
# Assay type: cell-based
# Parameters: unit not given here
# Settings: in duplicate, indicator organism Escherichia coli. ess.
# Method: Example 2(a) above was repeated using SCV (15) as the starting material. [drawing 27] Antibiotic in reaction mixtures was estimated by the agar diffusion method. Cyclization reaction mixtures were bioassayed using Micrococcus luteus ATCC 9341 and Escherichia coli Ess as indicator organisms. Ring expansion reaction mixtures were bioassayed using E. coli Ess as indicator organism in agar plates supplemented with penicillinase at 2 x 10^5 units/ml.
# One hour after the antibiotics were administered blood was collected from the rats into sterile citrate containing syringes. Blood samples were centrifuged to sediment red blood cells and 20 micro litre amounts of plasma were bioassayed in duplicate using Escherichia coli. ess. as the indicator organism. Original antibiotic solutions were also diluted and bioassayed in duplicate.
SMILES,bioassay of original antibiotic solution (1 microgram per millilitre),bioassay of original antibiotic solution (10 micrograms per millilitre)
"CC(=O)OCC1=C(C(=O)[O-])N2C(=O)[C@@H](NC(=O)CCCC(N)C(=O)O)[C@H]2SC1.[Na+] (stereo partly shown) [Na-Ceph-C, reference compound]",8.8,23.5
"CC1=C(C(=O)O)N2C(=O)[C@@H](NC(=O)CSCC(N)C(=O)O)[C@H]2SC1 (stereo partly shown) [(17), Carboxymethylcysteinyl-Desacetoxycephalosporin C]",17.5 and 17.0,33
